This note sets out measurements from PubChem BioAssay AID602404 (Sanford-Burnham Center for Chemical Genomics, 2012).

Values joined by “and” are separate entries in the source; they are usually repeats but may differ in a detail not shown here. Equal entries are not always repeated. Active and inactive are the calls of the source. No rule for the calls is given here.

The experiment has as its target Ubiquitin-conjugating enzyme E2 N (Homo sapiens) (UniProt P61088). In words: inhibition of UBC13-driven polyubiquitin chain formation – biochemical, TR-FRET, set 4, SAR follow-up (AID 602404). As to conditions: UBC13 polyubiquitination.

Usually IC50 stands for the concentration needed to halve the response being measured.

Chain of Ubiquitin-conjugating enzyme E2 N (Homo sapiens) (P61088 whole entry, looked up): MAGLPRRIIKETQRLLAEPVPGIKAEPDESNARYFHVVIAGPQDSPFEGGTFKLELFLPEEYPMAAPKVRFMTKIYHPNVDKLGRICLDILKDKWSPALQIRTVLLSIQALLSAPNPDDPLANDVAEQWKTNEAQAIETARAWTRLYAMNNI

For `Cc1ccc(NC(=O)C2CCN(c3ncnc4c3nc3n4CCCCC3)CC2)c(Cl)c1`, the IC50 is > 100 µM (inactive).

Consider `CCCN1CCN(C(=O)C2CCN(c3ncnc4c3nc3n4CCCCC3)CC2)CC1`, for which the IC50 is 3.05 µM.

In the case of `Cc1ccc(NC(=O)C2CCN(c3ncnc4c3nc3n4CCCCC3)CC2)cc1Br`, the IC50 is > 100 µM (inactive).

In the case of `Cc1ccc(NC(=O)C2CCN(c3ncnc4c3nc3n4CCCCC3)CC2)cc1F`, the IC50 result was “inactive”.

With `Cc1ccc(C)c(CN2CCC(CNC(=O)C3CCCN(c4ncnc5c4nc4n5CCCCC4)C3)CC2)c1` (stereo not given), the IC50 was 2.69 µM.

Turning to `Cc1cccc(NC(=O)C2CCCN(c3ncnc4c3nc3n4CCCC3)C2)c1` (stereo not given), the IC50 entry was “inactive”.

Regarding `O=C(C1CCN(c2ncnc3c2nc2n3CCCCC2)CC1)N1CCN(c2ncccn2)CC1`, the IC50 entry was “inactive”.

`Cc1cccc(NC(=O)C2CCN(c3ncnc4c3nc3n4CCCCC3)CC2)c1C`: the IC50 entry was “inactive”.

Take `O=C(NCC1CCN(Cc2cccc(Cl)c2)CC1)[C@@H]1CCCN(c2ncnc3c2nc2n3CCCCC2)C1`: the IC50 is 3.37 µM.

With `Cc1cccc(N2CCN(CCCNC(=O)C3CCCN(c4ncnc5c4nc4n5CCCCC4)C3)CC2C)c1` (stereo not given), the IC50 is 19.1 µM.

`O=C(Nc1cc(F)ccc1F)C1CCN(c2ncnc3c2nc2n3CCCCC2)CC1`: the IC50 entry was “inactive”.

Take `Cc1ccc(NC(=O)C2CCCN(c3ncnc4c3nc3n4CCCC3)C2)cc1Br` (stereo not given): the IC50 entry is “inactive”.

Take `O=C(C1CCN(c2ncnc3c2nc2n3CCCCC2)CC1)N1CCN(c2ccc(F)cc2)CC1`: the IC50 result was “inactive”.

With `CC1CCCC(C)N1CCCNC(=O)C1CCCN(c2ncnc3c2nc2n3CCCCC2)C1` (stereo not given), the half-inhibitory concentration (IC50) is 8.74 µM.

With `Cc1cccc(NC(=O)C2CCN(c3ncnc4c3nc3n4CCCCC3)CC2)c1`, the IC50 entry is “inactive”.

For the molecule `Cc1cc(Cl)ccc1NC(=O)C1CCN(c2ncnc3c2nc2n3CCCCC2)CC1`, the IC50 entry is “inactive”.

Regarding `Cc1cccc(NC(=O)C2CCN(c3ncnc4c3nc3n4CCCC3)CC2)c1`, the IC50 entry was “inactive”.

For the molecule `O=C(Nc1cccc(Cl)c1)C1CCN(c2ncnc3c2nc2n3CCCCC2)CC1`, the IC50 was 5.75 µM.

Regarding `O=C(NCC1CCN(Cc2ccccc2Cl)CC1)C1CCCN(c2ncnc3c2nc2n3CCCCC2)C1` (stereo not given), the IC50 is 2.28 µM.

As to `COc1cc(OC)c(NC(=O)C2CCN(c3ncnc4c3nc3n4CCCCC3)CC2)cc1Cl`, the IC50 result is “inactive”.

For the molecule `Cc1cc(C)cc(NC(=O)C2CCCN(c3ncnc4c3nc3n4CCCC3)C2)c1` (stereo not given), the IC50 result is “inactive”.

On to `O=C(NCCCN1CCCCC1)C1CCN(c2ncnc3c2nc2n3CCCCC2)CC1`, for which the IC50 is 3.42 µM.

For `O=C(NCC1CCN(Cc2ccc(Cl)cc2)CC1)C1CCCN(c2ncnc3c2nc2n3CCCC2)C1` (stereo not given), the IC50 is 6.79 µM.

Take `Cc1ccc(NC(=O)C2CCN(c3ncnc4c3nc3n4CCCCC3)CC2)cc1Cl`: the IC50 is 3.95 µM.

`COc1ccc(Cl)cc1NC(=O)C1CCN(c2ncnc3c2nc2n3CCCCC2)CC1`: the IC50 entry was “inactive”.

Turning to `O=C(NCc1cccc(Cl)c1)C1CCN(c2ncnc3c2nc2n3CCCC2)CC1`, the IC50 is 12.6 µM.

Take `O=C(NCc1cccc(Cl)c1)C1CCN(c2ncnc3c2nc2n3CCCCC2)CC1`: the IC50 entry is “inactive”.

`O=C(NCC1CCN(Cc2cccc(Cl)c2)CC1)[C@H]1CCCN(c2ncnc3c2nc2n3CCCC2)C1`: the IC50 was 2.66 µM.

Take `Cc1ccc(C)c(N2CCN(CCCNC(=O)C3CCCN(c4ncnc5c4nc4n5CCCCC4)C3)CC2)c1` (stereo not given): the IC50 is 9.51 µM.

Regarding `O=C(NCC1CCN(Cc2ccccc2F)CC1)C1CCCN(c2ncnc3c2nc2n3CCCCC2)C1` (stereo not given), the IC50 was 8.42 µM.

For `O=C(NCCCN1CCN(c2ccc(F)cc2)CC1)C1CCCN(c2ncnc3c2nc2n3CCCCC2)C1` (stereo not given), the IC50 is 2.22 µM.

As to `Cc1ccc(NC(=O)C2CCCN(c3ncnc4c3nc3n4CCCCC3)C2)cc1F` (stereo not given), the IC50 entry is “inactive”.

In the case of `Cc1ccccc1CN1CCC(CNC(=O)C2CCCN(c3ncnc4c3nc3n4CCCCC3)C2)CC1` (stereo not given), the IC50 was 3.55 µM.

In the case of `Cc1ccc(NC(=O)C2CCCN(c3ncnc4c3nc3n4CCCC3)C2)cc1F` (stereo not given), the IC50 entry was “inactive”.

Regarding `Cc1ccc(NC(=O)C2CCN(c3ncnc4c3nc3n4CCCC3)CC2)cc1Br`, the IC50 entry is “inactive”.

Take `O=C(NCc1ccc(Cl)c(Cl)c1)C1CCCN(c2ncnc3c2nc2n3CCCC2)C1` (stereo not given): the IC50 result is “inactive”.

Turning to `Cc1ccc(NC(=O)C2CCN(c3ncnc4c3nc3n4CCCC3)CC2)cc1F`, the IC50 result is “inactive”.

Turning to `Cc1ccc(NC(=O)C2CCCN(c3ncnc4c3nc3n4CCCCC3)C2)cc1Br` (stereo not given), the IC50 is > 100 µM (inactive).

For `O=C(NCc1cccc(Cl)c1)C1CCCN(c2ncnc3c2nc2n3CCCC2)C1` (stereo not given), the IC50 was > 100 µM (inactive).

Regarding `O=C(c1ccco1)N1CCN(C(=O)C2CCN(c3ncnc4c3nc3n4CCCCC3)CC2)CC1`, the IC50 result was “inactive”.

Regarding `CC1CC(C)CN(C(=O)C2CCN(c3ncnc4c3nc3n4CCCCC3)CC2)C1` (stereo not given), the IC50 result was “inactive”.

As to `O=C(C1CCN(c2ncnc3c2nc2n3CCCCC2)CC1)N1CCN(c2ccccn2)CC1`, the IC50 entry is “inactive”.

As for `Cc1ccc(NC(=O)C2CCN(c3ncnc4c3nc3n4CCCC3)CC2)cc1C`, the IC50 entry was “inactive”.

Regarding `Cc1ccc(NC(=O)C2CCCN(c3ncnc4c3nc3n4CCCC3)C2)cc1C` (stereo not given), the IC50 entry is “inactive”.

For `O=C(NCC1CCN(Cc2ccc(Cl)cc2)CC1)C1CCCN(c2ncnc3c2nc2n3CCCCC2)C1` (stereo not given), the IC50 is 2.75 µM.

Turning to `O=C(NCC1CCN(Cc2ccc(Cl)c(Cl)c2)CC1)C1CCCN(c2ncnc3c2nc2n3CCCC2)C1` (stereo not given), the IC50 was 5.74 µM.

As to `Cc1c(Cl)cccc1NC(=O)C1CCN(c2ncnc3c2nc2n3CCCCC2)CC1`, the IC50 is 11.8 µM.

Turning to `COc1cc(Cl)c(C)cc1NC(=O)C1CCN(c2ncnc3c2nc2n3CCCCC2)CC1`, the IC50 is > 100 µM (inactive).

Regarding `O=C(C1CCN(c2ncnc3c2nc2n3CCCCC2)CC1)N1CCC(Cc2ccccc2)CC1`, the IC50 is 14 µM.

Regarding `O=C(C1CCN(c2ncnc3c2nc2n3CCCCC2)CC1)N1CCN(c2ccccc2)CC1`, the IC50 result is “inactive”.

With `O=C(Nc1ccc(CN2CCCCC2)cc1)C1CCN(c2ncnc3c2nc2n3CCCCC2)CC1`, the IC50 result is “inactive”.

Consider `Cc1cc(C)cc(NC(=O)C2CCN(c3ncnc4c3nc3n4CCCC3)CC2)c1`, for which the IC50 result was “inactive”.

For the molecule `O=C(NCc1ccc(Cl)c(Cl)c1)C1CCN(c2ncnc3c2nc2n3CCCC2)CC1`, the IC50 is > 100 µM (inactive).

Turning to `O=C(Nc1ccc(F)c(Cl)c1)C1CCN(c2ncnc3c2nc2n3CCCCC2)CC1`, the IC50 is 5.67 µM.

On to `CCC1CCCCN1CCCNC(=O)C1CCN(c2ncnc3c2nc2n3CCCCC2)CC1` (stereo not given), for which the IC50 was 5.66 µM.

As for `O=C(NCC1CCN(Cc2cccc(Cl)c2)CC1)C1CCCN(c2ncnc3c2nc2n3CCCC2)C1` (stereo not given), the IC50 was 0.962 µM.

As for `O=C(NCc1ccc(Cl)c(Cl)c1)C1CCN(c2ncnc3c2nc2n3CCCCC2)CC1`, the IC50 is > 100 µM (inactive).

As for `O=C(C1CCN(c2ncnc3c2nc2n3CCCCC2)CC1)N1CCN(Cc2ccccc2)CC1`, the IC50 is 3.05 µM.

With `Cc1cccc(NC(=O)C2CCCN(c3ncnc4c3nc3n4CCCCC3)C2)c1` (stereo not given), the IC50 was > 100 µM (inactive).

As to `O=C(NCC1CCN(Cc2cccc(Cl)c2)CC1)[C@@H]1CCCN(c2ncnc3c2nc2n3CCCC2)C1`, the IC50 was 0.781 µM.

On to `CC1CCCCN1C(=O)C1CCN(c2ncnc3c2nc2n3CCCCC2)CC1` (stereo not given), for which the IC50 is > 100 µM (inactive).

As to `O=C(NCCCN1CCN(c2ccccc2)CC1)C1CCCN(c2ncnc3c2nc2n3CCCCC2)C1` (stereo not given), the IC50 was 3.06 µM.

As for `O=C(NCc1cccc(Cl)c1)C1CCCN(c2ncnc3c2nc2n3CCCCC2)C1` (stereo not given), the IC50 entry was “inactive”.

Take `O=C(C1CCN(c2ncnc3c2nc2n3CCCCC2)CC1)N1CCOCC1`: the IC50 result is “inactive”.

As to `COc1ccc(NC(=O)C2CCN(c3ncnc4c3nc3n4CCCCC3)CC2)cc1Cl`, the IC50 entry is “inactive”.

Regarding `O=C(NCC1CCN(Cc2cccc(Cl)c2)CC1)[C@H]1CCCN(c2ncnc3c2nc2n3CCCCC2)C1`, the half-maximal inhibitory concentration (IC50) was 15 µM.

Take `Cc1cc(C)cc(NC(=O)C2CCN(c3ncnc4c3nc3n4CCCCC3)CC2)c1`: the IC50 is > 100 µM (inactive).

On to `O=C(NCc1ccc(Cl)c(Cl)c1)C1CCCN(c2ncnc3c2nc2n3CCCCC2)C1` (stereo not given), for which the IC50 is > 100 µM (inactive).

On to `CN(CCNC(=O)C1CCN(c2ncnc3c2nc2n3CCCCC2)CC1)Cc1ccccc1`, for which the IC50 was 1.23 µM.

Consider `COc1ccccc1N1CCN(CCCNC(=O)C2CCCN(c3ncnc4c3nc3n4CCCCC3)C2)CC1` (stereo not given), for which the IC50 entry was “inactive”.

Take `O=C(NCC1CCN(Cc2ccccc2Cl)CC1)C1CCCN(c2ncnc3c2nc2n3CCCC2)C1` (stereo not given): the IC50 was 1.04 µM.

Regarding `Cc1cc(C)cc(NC(=O)C2CCCN(c3ncnc4c3nc3n4CCCCC3)C2)c1` (stereo not given), the IC50 entry is “inactive”.

Turning to `O=C(NCC1CCN(Cc2cccc(Cl)c2)CC1)C1CCCN(c2ncnc3c2nc2n3CCCCC2)C1` (stereo not given), the IC50 was 0.813 µM and 1.13 µM.

Consider `O=C(NCC1CCN(Cc2ccc(F)cc2)CC1)C1CCCN(c2ncnc3c2nc2n3CCCCC2)C1` (stereo not given), for which the IC50 was 2.87 µM.

For `O=C(NCC1CCN(Cc2ccc(Cl)c(Cl)c2)CC1)C1CCCN(c2ncnc3c2nc2n3CCCCC2)C1` (stereo not given), the IC50 is 4.03 µM.
